EC50 data for 16 compounds are collected here from patent US20070270434A1, “SULFONYL-SUBSTITUTED BICYCLIC COMPOUNDS AS MODULATORS OF PPAR” (KALYPSYS, INC., priority 2006, published 2007).

Common to all, as to type: cell-based, murine and human
What all share (settings): 20-24 hours

Assay [1] deals with T1, PPAR-alpha ligand binding domain fused to GAL4 DNA binding domain (UniProt Q07869).
T1 sequence (Q07869 1-468): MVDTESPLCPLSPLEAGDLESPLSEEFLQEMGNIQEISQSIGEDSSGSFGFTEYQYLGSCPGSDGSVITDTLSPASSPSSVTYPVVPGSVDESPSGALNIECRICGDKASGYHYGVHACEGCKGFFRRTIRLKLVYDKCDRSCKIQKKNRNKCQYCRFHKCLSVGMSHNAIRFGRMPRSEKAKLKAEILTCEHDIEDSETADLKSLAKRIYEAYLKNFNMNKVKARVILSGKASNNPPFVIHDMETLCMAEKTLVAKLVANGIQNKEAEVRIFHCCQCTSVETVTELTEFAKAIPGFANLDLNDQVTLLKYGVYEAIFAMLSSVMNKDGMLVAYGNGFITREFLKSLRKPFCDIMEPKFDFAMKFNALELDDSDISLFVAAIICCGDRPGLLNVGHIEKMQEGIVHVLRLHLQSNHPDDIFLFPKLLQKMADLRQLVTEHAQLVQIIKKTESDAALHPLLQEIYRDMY
In words: Transient transfection transactivation assay in CV-1 cells, PPAR-alpha (GAL4 chimera, luciferase reporter). The text has this: (§1) Compounds may be screened for functional potency in transient transfection assays in CV-1 cells for their ability to activate the PPAR subtypes (transactivation assay). A previously established chimeric receptor system was utilized to allow comparison of the relative transcriptional activity of the receptor subtypes on the same synthetic response element and to prevent endogenous receptor activation from complicating the interpretation of results. See, for example, Lehmann, J. M.; Moore, L. B.; Smith-Oliver, T. A; Wilkinson, W. O.; Willson, T. M.; Kliewer, S. A., An antidiabetic thiazolidinedione is a high affinity ligand for peroxisome proliferator-activated receptor […], J. Biol. Chem., 1995, 270, 12953-6. The ligand binding domains for murine and human PPAR-alpha, PPAR-gamma, and PPAR-delta are each fused to the yeast transcription factor GAL4 DNA binding domain. CV-1 cells were transiently transfected with expression vectors for the respective PPAR chimera along with a reporter construct containing four or five copies of the GAL4 DNA binding site driving expression of luciferase. After 8-16 h, the cells are replated into multi-well assay plates and the media is exchanged to phenol-red free DME medium supplemented with 5% delipidated calf serum. 4 hours after replating, cells were treated with either compounds or 1% DMSO for 20-24 hours. Luciferase activity was then assayed with Britelite (Perkin Elmer) following the manufacturer's protocol and measured with either the Perkin Elmer Viewlux or Molecular Devices Acquest (see, for example, Kliewer, S. A., et. al. Cell 1995, 83, 813-819). Rosiglitazone is used as a positive control in the PPARγ assay. Wy-14643 and GW7647 are used as positive controls in the PPARα assay. GW501516 is used as the positive control in the PPARδ assay.
A general note: Reporter assays use an easily measured gene product as a stand-in for the process of interest.

Assay [2] addresses T2, PPAR-gamma ligand binding domain fused to GAL4 DNA binding domain (UniProt P37231).
T2 sequence (P37231 1-505): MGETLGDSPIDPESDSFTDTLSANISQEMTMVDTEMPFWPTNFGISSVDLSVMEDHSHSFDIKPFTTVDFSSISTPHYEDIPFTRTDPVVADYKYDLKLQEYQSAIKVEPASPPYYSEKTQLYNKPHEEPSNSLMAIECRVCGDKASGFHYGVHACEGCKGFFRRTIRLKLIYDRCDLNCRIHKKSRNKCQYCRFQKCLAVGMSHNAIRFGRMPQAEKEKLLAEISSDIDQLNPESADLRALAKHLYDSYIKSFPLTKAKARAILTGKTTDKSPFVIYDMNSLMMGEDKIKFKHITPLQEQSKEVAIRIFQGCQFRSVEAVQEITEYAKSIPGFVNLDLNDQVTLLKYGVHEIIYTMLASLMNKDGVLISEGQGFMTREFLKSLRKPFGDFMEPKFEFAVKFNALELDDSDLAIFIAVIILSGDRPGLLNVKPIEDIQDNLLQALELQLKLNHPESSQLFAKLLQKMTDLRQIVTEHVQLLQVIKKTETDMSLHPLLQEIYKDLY
Kind of assay: Transient transfection transactivation assay in CV-1 cells, PPAR-gamma (GAL4 chimera, luciferase reporter).
Source text: as §1

Assay [3] addresses T3, PPAR-delta ligand binding domain fused to GAL4 DNA binding domain (UniProt Q03181).
T3 sequence (Q03181 1-441): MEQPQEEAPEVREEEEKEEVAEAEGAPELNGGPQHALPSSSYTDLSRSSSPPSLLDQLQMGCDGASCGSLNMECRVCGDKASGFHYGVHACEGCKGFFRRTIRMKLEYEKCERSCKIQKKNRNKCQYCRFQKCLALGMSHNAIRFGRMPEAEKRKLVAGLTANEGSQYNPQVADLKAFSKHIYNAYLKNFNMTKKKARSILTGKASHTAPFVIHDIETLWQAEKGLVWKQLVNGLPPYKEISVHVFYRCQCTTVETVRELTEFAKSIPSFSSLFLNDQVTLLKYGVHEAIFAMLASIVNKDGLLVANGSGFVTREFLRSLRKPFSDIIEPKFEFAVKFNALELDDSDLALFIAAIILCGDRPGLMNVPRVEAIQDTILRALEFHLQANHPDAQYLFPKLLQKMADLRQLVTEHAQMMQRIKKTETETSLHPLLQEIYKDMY
Kind of assay: Transient transfection transactivation assay in CV-1 cells, PPAR-delta (GAL4 chimera, luciferase reporter).
Source text: as §1

With `C[C@@H]1CN(CC(c2ccc(Cl)cc2)c2ccc(Cl)cc2)C[C@H](C)N1S(=O)(=O)c1cccc2c1CC(C(=O)O)C2` (stereo partly drawn) [Example 28, 4-(4-(2,2bis(4-Chlorophenyl)ethyl)-(cis)-2,6-dimethylpiperazin-1-ylsulfonyl)-2,3-dihydro-1H-indene-2-carboxylic acid], the EC50 in assay [1], in assay [2] and in assay [3] was greater than 100 µM each time.

For `C[C@@H]1CN(CCc2ccc(C(F)(F)F)cc2)C[C@H](C)N1S(=O)(=O)c1cccc2c1CC(C(=O)O)C2` (mixture of isomers) [Example 14A, 4-(cis-2,6-Dimethyl-4-(4-(trifluoromethyl)phenethyl)piperazin-1-ylsulfonyl)-2,3-dihydro-1H-indene-2-carboxylic acid], the EC50 (commonly the concentration giving half of the maximal effect) in assay [1] was greater than 100 µM; in assay [2], greater than 100 µM; in assay [3], less than 5 µM.

On to `C[C@@H]1CN(C(=O)Cc2ccc(OC(F)(F)F)cc2)C[C@H](C)N1S(=O)(=O)c1cccc2c1CC(C(=O)O)C2` (stereo partly drawn) [Example 7, 4-(cis-2,6-Dimethyl-4-(2-(4-(trifluoromethoxy)phenyl)acetyl)piperazin-1-ylsulfonyl)-2,3-dihydro-1H-indene-2-carboxylic acid], for which the EC50 in assay [1] is greater than 100 µM; in assay [2] it was greater than 100 µM; in assay [3], less than 5 µM.

For `O=C(O)C1Cc2cccc(S(=O)(=O)N3CCN(CCc4ccc(C(F)(F)F)cc4)CC3)c2C1` (stereo not drawn) [Example 21, 4-(4-(4-(trifluoromethyl)phenethyl)piperazin-1-ylsulfonyl)-2,3-dihydro-1H-indene-2-carboxylic acid], the EC50 is 5 to 100 µM in assay [1], 5 to 100 µM in assay [2] and less than 5 µM in assay [3].

Turning to `C[C@@H]1CN(CCc2ccc(OC(F)(F)F)cc2)C[C@H](C)N1S(=O)(=O)c1cccc2c1CC(C(=O)O)C2` (mixture of isomers) [Example 12A, 4-(cis-2,6-Dimethyl-4-(4-(trifluoromethoxy)phenethyl)piperazin-1-ylsulfonyl)-2,3-dihydro-1H-indene-2-carboxylic acid], the figures for the EC50 in assay [1], in assay [2] and in assay [3] were greater than 100 µM, greater than 100 µM and less than 5 µM, respectively.

With `C[C@@H]1CN(C(=O)c2ccc(OC(F)(F)F)cc2)C[C@H](C)N1S(=O)(=O)c1cccc2c1CC(C(=O)O)C2` (stereo partly drawn) [Example 9, 4-(cis-2,6-Dimethyl-4-(4-(trifluoromethoxy)benzoyl)piperazin-1-ylsulfonyl)-2,3-dihydro-1H-indene-2-carboxylic acid], the EC50 in assay [1] is greater than 100 µM; in assay [2], greater than 100 µM; in assay [3] it was 5 to 100 µM.

`O=C(O)C1Cc2cccc(S(=O)(=O)N3CCN(CCCc4ccc(OC(F)(F)F)cc4)CC3)c2C1` (stereo not drawn) [Example 22, 4-(4-(3-(4-(Trifluoromethoxy)phenyl)propyl)piperazin-1-ylsulfonyl)-2,3-dihydro-1H-indene-2-carboxylic acid]: the EC50 in assay [1] is 5 to 100 µM; in assay [2] it was less than 5 µM; in assay [3], less than 5 µM.

Turning to `C[C@@H]1CN(CC2(c3ccc(Cl)cc3)CC2)C[C@H](C)N1S(=O)(=O)c1cccc2c1CC(C(=O)O)C2` (stereo partly drawn) [Example 25, 4-(4-((1-(4-chlorophenyl)cyclopropyl)methyl)-(cis)-2,6-dimethylpiperazin-1-ylsulfonyl)-2,3-dihydro-1-H-indene-2-carboxylic acid], the EC50 is greater than 100 µM in assay [1], greater than 100 µM in assay [2] and less than 5 µM in assay [3].

Regarding `C[C@@H]1CN(C(=O)CCc2ccc(OC(F)(F)F)cc2)C[C@H](C)N1S(=O)(=O)c1cccc2c1CC(C(=O)O)C2` (stereo partly drawn) [Example 8, 4-(cis-2,6-Dimethyl-4-(3-(4-(trifluoromethoxy)phenyl)propanoyl)piperazin-1-ylsulfonyl)-2,3-dihydro-1H-indene-2-carboxylic acid], the EC50 is greater than 100 µM in assay [1], greater than 100 µM in assay [2] and less than 5 µM in assay [3].

Turning to `C[C@@H]1CN(Cc2cccc(OC(F)(F)F)c2)C[C@H](C)N1S(=O)(=O)c1cccc2c1CC(C(=O)O)C2` (stereo partly drawn) [Example 3, 4-[cis-2,6-Dimethyl-4-(3-(trifluoromethoxy)benzyl)piperazine-1-sulfonyl]-2,3-dihydro-1H-indene-2 carboxylic acid], the EC50 in assay [1] is greater than 100 µM; in assay [2], 5 to 100 µM; in assay [3] it was less than 5 µM.

For `C[C@@H]1CN(Cc2ccc(OC(F)(F)F)c(Cl)c2)C[C@H](C)N1S(=O)(=O)c1cccc2c1CC(C(=O)O)C2` (stereo partly drawn) [Example 4, 4-(4-(3-Chloro-4-(trifluoromethoxy)benzyl)-cis-2,6-dimethylpiperazin-1-ylsulfonyl)2,3-dihydro-1H-indene-2-carboxylic acid], the EC50 is 5 to 100 µM in assay [1], 5 to 100 µM in assay [2] and less than 5 µM in assay [3].

For `C[C@@H]1CN(Cc2ccc(C(F)(F)F)c(F)c2)C[C@H](C)N1S(=O)(=O)c1cccc2c1CC(C(=O)O)C2` (stereo partly drawn) [Example 1, 4-(4-(3-Fluoro-4-(trifluoromethyl)benzyl)-cis-2,6-dimethylpiperazin-1-ylsulfonyl)-2,3-dihydro-1H-indene-2-carboxylic acid], the concentration giving a half-maximal response (EC50) is greater than 100 µM in assay [1], greater than 100 µM in assay [2] and less than 5 µM in assay [3].

On to `C[C@@H]1CN(CCc2ccc(C(F)(F)F)c(F)c2)C[C@H](C)N1S(=O)(=O)c1cccc2c1CC(C(=O)O)C2` (stereo partly drawn) [Example 26, 4-(4-(3-Fluoro-4-(trifluoromethyl)phenethyl)-(cis)-2,6-dimethylpiperazin-1-ylsulfonyl)-2,3-dihydro-1H-indene-2-carboxylic acid], for which the concentration for a half-maximal effect (EC50) in assay [1] was greater than 100 µM; in assay [2], greater than 100 µM; in assay [3], less than 5 µM.

Take `O=C(O)C1Cc2cccc(S(=O)(=O)N3CCN(C(=O)Cc4ccc(C(F)(F)F)cc4)CC3)c2C1` (stereo not drawn) [Example 20, 4-(4-(2-(4-(trifluoromethyl)phenyl)acetyl)piperazin-1-ylsulfonyl)-2,3-dihydro-1H-indene-2-carboxylic acid]: the EC50 was greater than 100 µM in assay [1], 5 to 100 µM in assay [2] and 5 to 100 µM in assay [3].

On to `C[C@@H]1CN(CCCc2ccc(OC(F)(F)F)cc2)C[C@H](C)N1S(=O)(=O)c1cccc2c1CC(C(=O)O)C2` (stereo partly drawn) [Example 17, 4-(cis-2,6-dimethyl-4-(3-(4-(trifluoromethoxy)phenyl)propyl)piperazin-1-ylsulfonyl)-2,3-dihydro-1H-indene-2-carboxylic acid], for which the EC50 in assay [1] was greater than 100 µM; in assay [2], 5 to 100 µM; in assay [3], less than 5 µM.

Consider `C[C@@H]1CN(CCc2ccc(Cl)c(Cl)c2)C[C@H](C)N1S(=O)(=O)c1cccc2c1CC(C(=O)O)C2` (stereo partly drawn) [Example 27], for which the figures for the EC50 in assay [1], in assay [2] and in assay [3] were greater than 100 µM, greater than 100 µM and less than 5 µM, respectively.
